Two molecules from US11426389B2, “Compositions and methods for promoting hematopoietic stem cell regeneration” (priority 2017, dated 2022) can be followed below.

The subject of data set [1] is ShCamkk2 M1 cells. The data set is classed as cell-based. How it is done: FIG. 6A-6F. CaMKK2 couples radiation signaling with the AMPK anti-proliferative pathway. HSPC (KL+KSL) were isolated from WT and Camkk2 null (KO) mice and irradiated in vitro with 400 cGy or left non-irradiated. Cells were then cultured for 1-h in regular medium. Protein expression was normalized by actin and expressed as fold change over basal (non-irradiated WT HSPC), and is reported on the top of each lane. (A) Immunoblots of CaMKK2, phospho-CaMK1 (pCaMK1) and actin. (B) Immunoblots of Tp53, phosphorylated AMPK and S6rp (pAMPK and pS6rp, respectively). (C-E) M1 myeloid progenitor cells were transduced with lentiviral vectors expressing a short hairpin sequence for silencing Camkk2 or a control sequence (ShCamkk2 and Ctrl, respectively). Ctrl and ShCamkk2 M1 cells were then irradiated or left non-irradiated. One-hour after irradiation, M1 cell protein expression was assessed by immunoblotting. (C) Expression of CaMKK2 and actin. […] Cell number was determined using a colorimetric assay, and the results are expressed as fold change of non-irradiated cells cultured in the absence of AICAR. […]
To determine the functional effects of Camkk2 deficiency in M1 cells, control and ShCamkk2 M1 cells were exposed to 300 cGy with or without a cell permeable AMPK agonist and the number of live M1 cells were determined 24 h after irradiation.

For data set [2], the system named is 900 cGy TBI wild-type mice. The experiment in a line: Survival of lethally irradiated (900 cGy TBI, LD100/15) wild-type mice treated with STO-609. The data set is classed as in vivo. The conditions noted are these: 10 μM/kg on days 1, 2 and 3 post-TBI, intravenous, vs vehicle, n=10 per group. The method, then: (§1) FIGS. 7A-7D. Pharmacologic inhibition of CaMKK2 enhances hematopoietic regeneration in vivo. Treatment with STO-609, a CaMKK2 inhibitor, mitigates the acute hematopoietic radiation syndrome. (A) Scheme of irradiation and STO-609 treatment in wild type mice. (B) Survival of 900 cGy TBI wild-type mice treated with vehicle or STO-609 (n=10 per group). Wild-type mice were irradiated with 500 cGy TBI and were then treated with STO-609 or vehicle after 24 h. Nine days after TBI, the mice were killed and bones were removed. The BM cells were counted and stained to identify HSPC (BMC). (C) Representative staining and gating strategy. (D) Absolute number of BMC and HSPC (upper and lower graph, respectively). The results are expressed as the fold changes over the absolute number of cells recovered form vehicle-treated wild type mice, and are normalized for one femur. Two independent experiments have been combined (total number of mice-9 per group). Bars graph reports mean±S.E.M. *P-value<0.05, **P-value<0.01/
(§2) CaMKK2-EGFP transgenic reporter mice were used. Radiation was delivered by a Shepherd Cs^137γ-irradiator at a dose rate of approximately 600 cGy per min. […]
(§3) It was hypothesized that pharmacologic inhibition of CaMKK2 increases survival and HSPC recovery following TBI. […] Next, the effects of STO-609 treatment on HSPC of mice receiving 500 cGy TBI were evaluated. […]

The test system of data set [3] is HSPC. The experiment in a line: Bone marrow cell and HSPC recovery in 500 cGy TBI wild-type mice treated with STO-609. Type of data set: in vivo. Conditions: 9 days after TBI, vs vehicle-treated mice. How it is done: as §1, §2, §3

Molecules are shown by their SMILES.

As for `NC(=O)c1ncn([C@@H]2O[C@H](CO)[C@@H](O)[C@H]2O)c1N` [AICAR, 5-aminoimidazole-4-carboxamide 1-β-d-ribofuranoside], in data set [1] (M1 cells, following radiation or AICAR treatment (data not shown)), the cell death result is “no increase in cell death”. Also, the “number of live M1 cells (proliferation) after irradiation” value in data set [1] (ShCamkk2 M1 cells, 300 cGy, 24 h, AICAR 100 μM) was “reverted the refractory phenotype of ShCamkk2 M1 cells”.

As for `O=C(O)c1ccc2c3c1cccc3c(=O)n1c3ccccc3nc21` [STO-609, 7H-benzimidazo(2,1-a)benz(de)isoquinoline-7-one-3-carboxylic acid], in data set [2], the “survival following TBI” value is given as “significantly prolonged survival”. Further, in data set [3], the “HSPC in the BM” value was “More” and the “total BM cells in the BM” value is given as “More total BM cells”.
